What all share (assay): Kinase selectivity, scanMAX Kinase assay panel (DiscoverX), % control at 1 uM
What all share (assay type): binding

The target in assay [1] is T1, scanMAX Kinase assay panel (Homo sapiens, UniProt Q96J92).
T1 construct: purchased DiscoverX
Conditions: WNK4; 1 uM; read-out: Percent Control (%). The method in brief: (§1)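 Each kinase was first exposed to the test compound at 1 uM in DMSO. Signal was then normalised to positive and negative controls to give % control. Finally, any enzyme showing <35% control was judged inhibited.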

Assay [2] concerns the target T2, scanMAX Kinase assay panel (Homo sapiens, UniProt Q59H18).
T2 construct: purchased DiscoverX
T2 sequence (Q59H18 1-835): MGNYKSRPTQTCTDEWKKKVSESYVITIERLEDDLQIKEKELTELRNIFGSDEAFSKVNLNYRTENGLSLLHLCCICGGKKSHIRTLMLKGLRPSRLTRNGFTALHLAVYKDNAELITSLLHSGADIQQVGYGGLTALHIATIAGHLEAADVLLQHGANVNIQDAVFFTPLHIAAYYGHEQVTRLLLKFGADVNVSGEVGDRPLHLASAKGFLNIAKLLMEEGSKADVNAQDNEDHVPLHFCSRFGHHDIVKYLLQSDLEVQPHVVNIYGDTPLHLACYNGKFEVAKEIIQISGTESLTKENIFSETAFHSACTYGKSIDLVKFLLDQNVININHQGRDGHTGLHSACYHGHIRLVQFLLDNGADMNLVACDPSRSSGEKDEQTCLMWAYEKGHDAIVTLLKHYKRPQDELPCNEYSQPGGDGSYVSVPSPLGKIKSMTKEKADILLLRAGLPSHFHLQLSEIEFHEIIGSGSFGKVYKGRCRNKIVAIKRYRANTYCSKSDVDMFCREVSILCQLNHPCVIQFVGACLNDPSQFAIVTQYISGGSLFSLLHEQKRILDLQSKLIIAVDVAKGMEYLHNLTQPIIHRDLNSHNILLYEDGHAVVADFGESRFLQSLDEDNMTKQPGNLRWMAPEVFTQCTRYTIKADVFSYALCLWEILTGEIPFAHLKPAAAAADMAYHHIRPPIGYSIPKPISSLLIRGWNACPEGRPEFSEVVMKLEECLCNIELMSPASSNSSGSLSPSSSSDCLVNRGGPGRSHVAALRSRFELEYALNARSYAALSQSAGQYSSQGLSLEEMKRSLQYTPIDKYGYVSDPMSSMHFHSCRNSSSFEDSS
Conditions: TNNI3K; 1 uM; read-out: Percent Control (%). The method in brief: as §1

The target of assay [3] is T3, scanMAX Kinase assay panel (Homo sapiens, UniProt Q8WU08).
T3 construct: purchased DiscoverX
Conditions: YANK1; 1 uM; read-out: Percent Control (%). The method in brief: as §1

Assay [4] deals with T4, scanMAX Kinase assay panel (Homo sapiens, UniProt Q16832).
T4 construct: purchased DiscoverX
T4 sequence (Q16832 22-855): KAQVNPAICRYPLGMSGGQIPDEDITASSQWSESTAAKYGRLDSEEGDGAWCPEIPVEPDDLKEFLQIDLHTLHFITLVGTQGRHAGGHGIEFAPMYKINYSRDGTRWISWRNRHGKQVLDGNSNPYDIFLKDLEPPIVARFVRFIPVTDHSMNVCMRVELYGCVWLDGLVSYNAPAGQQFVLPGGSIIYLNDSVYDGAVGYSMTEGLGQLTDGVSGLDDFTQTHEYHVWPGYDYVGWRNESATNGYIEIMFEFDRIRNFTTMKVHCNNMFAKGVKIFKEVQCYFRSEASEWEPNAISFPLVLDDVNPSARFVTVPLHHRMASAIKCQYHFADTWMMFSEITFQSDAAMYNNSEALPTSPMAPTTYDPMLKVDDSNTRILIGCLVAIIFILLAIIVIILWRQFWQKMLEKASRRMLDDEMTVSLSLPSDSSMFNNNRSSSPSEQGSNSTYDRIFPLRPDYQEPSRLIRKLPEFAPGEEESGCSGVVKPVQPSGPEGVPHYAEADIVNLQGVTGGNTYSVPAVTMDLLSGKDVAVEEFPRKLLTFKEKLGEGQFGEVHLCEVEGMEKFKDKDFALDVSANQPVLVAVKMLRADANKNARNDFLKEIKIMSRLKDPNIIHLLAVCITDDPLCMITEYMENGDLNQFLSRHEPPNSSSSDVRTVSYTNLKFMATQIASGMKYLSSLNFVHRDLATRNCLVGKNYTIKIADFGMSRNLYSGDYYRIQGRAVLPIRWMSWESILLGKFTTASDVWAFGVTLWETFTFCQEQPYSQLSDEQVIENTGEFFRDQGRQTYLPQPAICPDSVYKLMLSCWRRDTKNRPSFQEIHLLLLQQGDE
Particulars: DDR2; 1 uM; read-out: Percent Control (%). Put shortly:
as §1

In assay [5] the target is T5, scanMAX Kinase assay panel (Homo sapiens, UniProt P50750).
T5 construct: purchased DiscoverX
Conditions: CDK9; 1 uM; read-out: Percent Control (%). Put shortly:
as §1

Assay [6] addresses T6, scanMAX Kinase assay panel (Homo sapiens, UniProt P11362).
T6 construct: purchased DiscoverX
Particulars: FGFR1; 1 uM; read-out: Percent Control (%). Put shortly: as §1

The target in assay [7] is T7, scanMAX Kinase assay panel (Homo sapiens, UniProt Q92630).
T7 construct: purchased DiscoverX
T7 sequence (Q92630 1-601): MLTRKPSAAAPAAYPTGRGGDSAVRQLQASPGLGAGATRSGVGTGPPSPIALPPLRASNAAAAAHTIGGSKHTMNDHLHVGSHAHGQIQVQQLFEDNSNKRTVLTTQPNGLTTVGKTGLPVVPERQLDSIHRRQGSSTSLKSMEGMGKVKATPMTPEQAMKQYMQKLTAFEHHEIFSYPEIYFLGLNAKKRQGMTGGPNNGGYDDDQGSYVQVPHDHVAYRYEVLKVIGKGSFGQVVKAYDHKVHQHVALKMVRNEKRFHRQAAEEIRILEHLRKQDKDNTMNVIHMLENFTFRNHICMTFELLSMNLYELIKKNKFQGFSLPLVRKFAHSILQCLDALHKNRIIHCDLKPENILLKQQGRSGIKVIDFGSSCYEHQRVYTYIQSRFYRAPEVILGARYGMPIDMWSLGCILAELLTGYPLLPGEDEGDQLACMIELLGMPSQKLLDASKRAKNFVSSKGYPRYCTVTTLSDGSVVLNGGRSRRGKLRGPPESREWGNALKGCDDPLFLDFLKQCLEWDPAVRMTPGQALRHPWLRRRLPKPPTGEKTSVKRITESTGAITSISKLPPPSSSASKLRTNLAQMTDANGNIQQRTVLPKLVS
Conditions: DYRK2; 1 uM; read-out: Percent Control (%). Put shortly:
as §1

T6 sequence (P11362 22-822): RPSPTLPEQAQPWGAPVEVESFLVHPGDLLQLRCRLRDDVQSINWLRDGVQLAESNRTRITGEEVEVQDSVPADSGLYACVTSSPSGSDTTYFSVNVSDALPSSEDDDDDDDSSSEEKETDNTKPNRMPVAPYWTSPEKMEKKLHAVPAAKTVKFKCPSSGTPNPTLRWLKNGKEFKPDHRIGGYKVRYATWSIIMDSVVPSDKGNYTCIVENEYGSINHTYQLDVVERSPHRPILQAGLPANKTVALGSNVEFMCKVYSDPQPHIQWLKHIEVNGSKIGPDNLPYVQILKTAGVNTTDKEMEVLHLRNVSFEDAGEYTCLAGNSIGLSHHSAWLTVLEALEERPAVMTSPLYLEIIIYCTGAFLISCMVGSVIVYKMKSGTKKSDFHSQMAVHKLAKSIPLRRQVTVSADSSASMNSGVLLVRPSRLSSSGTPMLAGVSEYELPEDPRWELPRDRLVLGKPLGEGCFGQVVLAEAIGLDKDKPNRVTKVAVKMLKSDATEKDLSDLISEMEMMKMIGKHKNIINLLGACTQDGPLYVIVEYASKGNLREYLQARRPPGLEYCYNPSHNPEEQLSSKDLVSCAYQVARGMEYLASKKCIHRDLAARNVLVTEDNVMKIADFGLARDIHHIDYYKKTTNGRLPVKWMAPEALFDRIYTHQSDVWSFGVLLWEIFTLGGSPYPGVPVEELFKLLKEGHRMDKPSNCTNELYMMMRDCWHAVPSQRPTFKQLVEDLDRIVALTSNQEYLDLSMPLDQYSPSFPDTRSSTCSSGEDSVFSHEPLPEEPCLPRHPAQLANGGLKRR
T1 sequence (Q96J92 whole entry): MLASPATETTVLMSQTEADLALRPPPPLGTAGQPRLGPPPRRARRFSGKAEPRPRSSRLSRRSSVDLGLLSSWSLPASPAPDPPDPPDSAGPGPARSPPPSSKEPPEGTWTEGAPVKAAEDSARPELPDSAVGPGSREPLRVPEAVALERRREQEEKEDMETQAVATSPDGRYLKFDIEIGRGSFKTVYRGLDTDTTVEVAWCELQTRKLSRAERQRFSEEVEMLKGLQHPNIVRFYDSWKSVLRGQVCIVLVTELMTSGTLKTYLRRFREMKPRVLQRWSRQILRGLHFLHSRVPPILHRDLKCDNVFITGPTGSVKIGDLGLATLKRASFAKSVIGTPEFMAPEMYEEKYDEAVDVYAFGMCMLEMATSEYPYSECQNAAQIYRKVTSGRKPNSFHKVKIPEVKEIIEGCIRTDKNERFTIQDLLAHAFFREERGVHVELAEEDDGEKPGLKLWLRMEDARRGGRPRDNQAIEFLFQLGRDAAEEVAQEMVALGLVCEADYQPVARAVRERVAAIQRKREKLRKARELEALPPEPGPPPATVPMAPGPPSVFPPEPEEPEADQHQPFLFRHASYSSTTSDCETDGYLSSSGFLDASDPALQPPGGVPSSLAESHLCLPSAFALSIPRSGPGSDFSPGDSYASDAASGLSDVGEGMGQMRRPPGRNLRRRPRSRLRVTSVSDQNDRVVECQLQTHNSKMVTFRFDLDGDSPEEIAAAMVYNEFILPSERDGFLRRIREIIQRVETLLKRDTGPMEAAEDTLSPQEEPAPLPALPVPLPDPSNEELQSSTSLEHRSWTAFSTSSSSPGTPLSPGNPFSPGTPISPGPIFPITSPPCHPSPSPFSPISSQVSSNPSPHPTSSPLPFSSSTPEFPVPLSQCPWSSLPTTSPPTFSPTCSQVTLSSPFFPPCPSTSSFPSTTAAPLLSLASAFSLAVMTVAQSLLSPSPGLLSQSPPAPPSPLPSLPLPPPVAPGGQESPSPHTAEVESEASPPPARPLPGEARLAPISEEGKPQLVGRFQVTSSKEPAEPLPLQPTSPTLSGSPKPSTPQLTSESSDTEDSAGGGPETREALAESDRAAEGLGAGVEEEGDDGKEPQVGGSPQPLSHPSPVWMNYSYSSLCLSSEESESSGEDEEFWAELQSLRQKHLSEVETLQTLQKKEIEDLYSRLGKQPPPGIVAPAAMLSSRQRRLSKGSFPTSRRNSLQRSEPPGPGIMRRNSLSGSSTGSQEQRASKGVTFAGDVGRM
T5 sequence (P50750 whole entry): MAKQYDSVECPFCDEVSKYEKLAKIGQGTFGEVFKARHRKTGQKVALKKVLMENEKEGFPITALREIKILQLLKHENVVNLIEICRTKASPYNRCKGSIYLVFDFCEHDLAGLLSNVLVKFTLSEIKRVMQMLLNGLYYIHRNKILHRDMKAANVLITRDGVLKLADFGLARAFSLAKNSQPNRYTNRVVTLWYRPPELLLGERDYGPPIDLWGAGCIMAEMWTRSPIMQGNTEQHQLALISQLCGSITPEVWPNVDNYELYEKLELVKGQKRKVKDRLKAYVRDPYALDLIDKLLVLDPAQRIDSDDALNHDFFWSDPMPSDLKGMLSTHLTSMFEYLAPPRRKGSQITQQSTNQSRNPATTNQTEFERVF
T3 sequence (Q8WU08 whole entry): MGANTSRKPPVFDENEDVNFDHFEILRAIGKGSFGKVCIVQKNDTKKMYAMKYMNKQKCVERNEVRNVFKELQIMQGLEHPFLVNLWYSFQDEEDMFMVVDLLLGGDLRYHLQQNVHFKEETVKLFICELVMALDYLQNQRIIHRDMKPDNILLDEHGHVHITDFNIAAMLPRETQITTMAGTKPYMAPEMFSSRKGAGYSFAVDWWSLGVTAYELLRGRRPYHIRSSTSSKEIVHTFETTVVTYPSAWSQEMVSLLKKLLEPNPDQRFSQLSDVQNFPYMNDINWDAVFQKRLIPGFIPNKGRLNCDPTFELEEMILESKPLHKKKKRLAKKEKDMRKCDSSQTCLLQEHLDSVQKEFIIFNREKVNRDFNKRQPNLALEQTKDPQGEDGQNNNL

Take `Cc1ccc(C(=O)Nc2ccc(CN3CCN(C)CC3)c(C(F)(F)F)c2)cc1C#Cc1cnc2c(Nc3cnn(C)c3)cccn12` [Example 1, 4-methyl-3-((8-((1-methyl-1H-pyrazol-4-yl)amino)imidazo[1,2-a]pyridin-3-yl)ethynyl)-N-(4-((4-methylpiperazin-1-yl)methyl)-3-(trifluoromethyl)phenyl)benzamide]: the remaining binding at 1 µM in assay [1] came out at 96%; in assay [2], 0%; in assay [3], 69%; in assay [4], 0%; in assay [5], 72%; in assay [6], 0%. In assay [7], the remaining binding at 1 µM turned out to be 75%.
For `Cc1ccc(NC(=O)C2(C(=O)Nc3ccc(F)cc3)CC2)cc1C#Cc1cnc2c(Nc3cnn(C(C)C)c3)cccn12` [Example 78], the remaining binding at 1 µM in assay [1] was 100%; in assay [2], 93%; in assay [3], 84%; in assay [4], 3%; in assay [5] it was 100%; in assay [6], 100%. For the same molecule, the remaining binding at 1 µM in assay [7] came to 94%.
With `Cc1cn(-c2cc(NC(=O)c3ccc(C)c(C#Cc4cnc5c(Nc6cnn(C)c6)cccn45)c3)cc(C(F)(F)F)c2)cn1` [Example 12, 4-methyl-N-(3-(4-methyl-1H-imidazol-1-yl)-5-(trifluoromethyl)phenyl)-3-((8-((1-methyl-1H-pyrazol-4-yl)amino)imidazo[1,2-a]pyridin-3-yl)ethynyl)benzamide], the remaining binding at 1 µM was determined as 100% in assay [1]; 25% in assay [2]; 98% in assay [3]; 7% in assay [4]; 88% in assay [5]; 6% in assay [6]. For the same molecule, in assay [7], the remaining binding at 1 µM amounted to 91%.

The values are drawn from patent US10870647B2, “Imidazopyridine derivative, method for preparing same, and pharmaceutical composition containing same as active ingredient for preventing or treating cancer” (DAEGU-GYEONGBUK MEDICAL INNOVATION FOUNDATION, priority 2016, dated 2020).
